{"source": "patent US20110065783A1", "about": "“HYDROXYLATED NEBIVOLOL METABOLITES” (priority 2005, published 2011)", "key": {"[1]": {"system": "human umbilical vein endothelial cells (HUVEC)", "assay": "Peak NO release from HUVEC after acute treatment (porphyrinic probe)", "assay_type": "cell-based", "protocol": "All measurements presented are recorded in vitro using a sensitive porphyrinic probe. NO release is measured directly from human umbilical vein endothelial cells (HUVEC). HUVEC cells were obtained from American Type Culture Collection (Manassas, Va.) and grown in Ham's F12K medium with 2 mM L-glutamine adjusted to contain 1.5 g/l sodium bicarbonate and supplemented with 0.1 mg/ml heparin and 0.03-0.05 mg/ml endothelial cell growth supplement (ECGS)=10% fetal bovine serum. The HUVEC cells were kept in an atmosphere of elevated CO2 concentration (5%). Nebivolol, its enantiomers, and nebivolol metabolites including the nebivolol glucuronides, 4-hydroxy-5′ phenol metabolite, 4-hydroxy-8′-phenol metabolite, 4-hydroxy, 5-hydroxy, 8-hydroxy metabolites, N-DAD, N-DACA and N-DAAA, are obtained from Mylan Laboratories (Morgantown, W. Va.)\nAll measurements of endothelial NO release are conducted in Hank's balance solution at 37° C. Cell wells are transferred to a Faraday cage and a porphyrinic sensor (diameter 0.5 mm) is positioned at a distance of 5±2 μm from the surface of the endothelial cells using an inverted microscope (Leica Microsystems, Wetzler, Germany) and a computer-assisted micromanipulator. The sensor operates with a three-electrode system: nanosensor (working electrode), saturated calomel electrode (reference electrode) and platinum wire (counter electrode, 0.5 mm diameter). The three electrodes are connected to a potentiostat/galvanostat PAR273. The baseline is stabilized after about 20 seconds. The test compounds are injected with a nanoinjector on to the surface of the cells following solubilization in buffer. The current proportional to the NO concentration is measured with the sensor, which operates in amperometric mode at a constant potential of 0.63V. Data are acquired with the use of an IBM computer with custom software and amperograms (current vs. time curves) and are recorded with a Guniry FAS1 Femtostat (Warminster, Pa.).\nNanosensors are prepared from carbon fibers. The size of the tip of carbon fiber is reduced from 6 μm to less than 1 μm by temperature controlled burning. The sensors are sensitized to NO by deposition of electrically conductive polymeric porphyrin and covered with a thin layer of Nafion. The prophyrinic microsensor has a response time of 0.1 ms at a micromolar NO concentration and 10 ms at the detection limit of 1 nM.\nThe nanosensor for NO is calibrated using saturated solution (concentration 1.82 mM verified with the coulometric method). Linear calibration curves are constructed for each sensor from […] before and after measurements of cell activity. The data are presented as the mean±SEM for each of the triplicate measurements. The data (calculation and plotting) are transferred to Microcal Origin Software (OriginLab Corp., Northampton, Mass.).\nThe HUVEC preparation is stable over the course of these experiments with the cells remaining viable in culture for >24 hours. Under non-stimulating conditions, basal levels of NO release are very low (<30 nM). Measurement of NO release as a function of treatment is conducted in individual endothelial cells. Multiple measurements of NO release can be conducted on single cells following a brief refractory period. For robust statistical analysis, separate cells are used for each concentration and type of drug used in these analyses."}, "[2]": {"system": "HUVECs isolated from White and Black American donors", "assay": "Acute NO release from endothelial cells of White and Black American donors (electrochemical nanosensors)", "assay_type": "cell-based, human", "settings": "for NO (nM), Black Donors, acute NO release / NO (nM), White Donors, acute NO release: acute drug treatment 1.0 μM, mean±S.D. (n=5); for NO (nM), Black Donors, acute NO release: HUVECs from Black American donors; for NO (nM), White Donors, acute NO release: HUVECs from White donors", "from_the_text": "Values are mean±S.D. (n=5).\nThe 4′(R)-hydroxy-5-fluoro-l-nebivolol metabolite also exceeds the activity of nebivolol and even l-nebivolol by >50%. These findings indicate that hydroxy metabolites of nebivolol have distinct and highly reproducible effects on acute NO release in human endothelial cells.\nIn Table 1 and FIG. 7, the comparative effects of nebivolol, d-nebivolol, l-nebivolol and six stereoselective hydroxy metabolites on NO release are shown for cells harvested from white (open bars) and black American (solid bars) donors. The release of the NO from these endothelial cells was evaluated with electrochemical nanosensors placed within close proximity to the cell surface. […] The 4′(R)-hydroxy-5-fluoro-l-nebivolol metabolite (1689-64B) also exceeds the activity of l-nebivolol by >50%. The metabolite with the least activity is similar to nebivolol. These findings indicate that hydroxy metabolites of nebivolol have distinct and highly reproducible effects on acute NO release in human endothelial cells."}, "human endothelial cells": {"system": "human endothelial cells", "assay": "Capacity for NO release in human endothelial cells following chronic administration", "assay_type": "cell-based"}}, "data": [{"compound": "OC(CNCC(O)C1CCc2cc(F)ccc2O1)C1CCc2cc(F)ccc2O1", "note": "(racemic) [nebivolol]", "values": [{"measurement": "NO peak release", "setting": "[1]; 5 μM, acute, FIG. 4", "result": "~225", "unit": "nm"}, {"measurement": "NO (nM), Black Donors, acute NO release", "setting": "[2]", "result": "148 ± 10", "unit": "nM"}, {"measurement": "NO (nM), White Donors, acute NO release", "setting": "[2]", "result": "218 ± 11", "unit": "nM"}]}, {"compound": "Oc1cc2c(cc1F)OC(C(O)CNCC(O)C1C[C@H](O)c3cc(F)ccc3O1)CC2", "note": "(stereo partly drawn) [4 (S)-Hydroxy-7′-fluoro-6′-hydroxy-l-nebivolol]", "values": [{"measurement": "NO (nM), Black Donors, acute NO release", "setting": "[2]", "result": "242 ± 12", "unit": "nM"}, {"measurement": "NO (nM), White Donors, acute NO release", "setting": "[2]", "result": "272 ± 12", "unit": "nM"}]}, {"compound": "OC(CNCC(O)C1C[C@H](O)c2cc(F)ccc2O1)C1CCc2cc(F)ccc2O1", "note": "(stereo partly drawn) [4(S)-Hydroxy-l-nebivolol]", "values": [{"measurement": "NO (nM), Black Donors, acute NO release", "setting": "[2]", "result": "151 ± 8", "unit": "nM"}, {"measurement": "NO (nM), White Donors, acute NO release", "setting": "[2]", "result": "204 ± 12", "unit": "nM"}]}, {"compound": "OC1CC(C(O)CNCC(O)C2CCc3cc(F)ccc3O2)Oc2ccc(F)cc21", "note": "(stereo not drawn) [4-hydroxy nebivolol]", "values": [{"measurement": "capacity for NO release following chronic administration (in words)", "setting": "human endothelial cells", "result": "increase the capacity for NO release"}, {"measurement": "NO release compared with reference agents (in words)", "setting": "[1]; 5 μM, acute, FIG. 4", "result": "approximates values measured with acetylcholine"}, {"measurement": "peak NO release", "setting": "[1]; 5 μM, acute, FIG. 4", "result": "exceeds 400 nM"}, {"measurement": "NO release from human endothelial cells, concentration dependence (in words)", "setting": "[1]; acute administration", "result": "increase NO release from human endothelial cell in concentration dependent fashion"}, {"measurement": "EC50", "setting": "[1]; acute, concentration-response, FIG. 6", "result": 500, "unit": "nM"}]}, {"compound": "Oc1ccc2c(c1F)CCC(C(O)CNCC(O)C1C[C@@H](O)c3cc(F)ccc3O1)O2", "note": "(stereo partly drawn) [4′(R)-Hydroxy-5-fluoro-6-hydroxy-l-nebivolol]", "values": [{"measurement": "NO (nM), Black Donors, acute NO release", "setting": "[2]", "result": "316 ± 17", "unit": "nM"}, {"measurement": "NO (nM), White Donors, acute NO release", "setting": "[2]", "result": "407 ± 27", "unit": "nM"}, {"measurement": "NO release activity in excess of l-nebivolol", "setting": "[2]; acute treatment, compared with l-nebivolol (b247 also nebivolol)", "result": "> 50", "unit": "%"}]}, {"compound": "Oc1cc2c(cc1F)OC(C(O)CNCC(O)C1C[C@@H](O)c3cc(F)ccc3O1)CC2", "note": "(stereo partly drawn) [4′(R)-Hydroxy-7-fluoro-6-hydroxy-l-nebivolol]", "values": [{"measurement": "NO (nM), Black Donors, acute NO release", "setting": "[2]", "result": "383 ± 18", "unit": "nM"}, {"measurement": "NO (nM), White Donors, acute NO release", "setting": "[2]", "result": "476 ± 20", "unit": "nM"}, {"measurement": "NO release, black donors", "setting": "[2]; acute treatment, endothelial cells from black donors", "result": "383 ± 18", "unit": "nmol/L"}, {"measurement": "NO release, white donors", "setting": "[2]; acute treatment, endothelial cells from white donors", "result": "476 ± 20", "unit": "nmol/L"}, {"measurement": "increase in NO release as compared to nebivolol", "setting": "[2]; acute treatment, white and black donors", "result": "nearly two-fold increase"}]}, {"compound": "OC(CNCC(O)C1C[C@@H](O)c2cc(F)ccc2O1)C1CCc2cc(F)ccc2O1", "note": "(stereo partly drawn) [4′(R)-Hydroxy-l-nebivolol]", "values": [{"measurement": "NO (nM), Black Donors, acute NO release", "setting": "[2]", "result": "194 ± 10", "unit": "nM"}, {"measurement": "NO (nM), White Donors, acute NO release", "setting": "[2]", "result": "237 ± 11", "unit": "nM"}]}, {"compound": "Oc1ccc2c(c1F)CCC(C(O)CNCC(O)C1CCc3cc(F)ccc3O1)O2", "note": "(stereo not drawn) [5-fluoro-6-hydroxy-l-nebivolol]", "values": [{"measurement": "NO (nM), Black Donors, acute NO release", "setting": "[2]", "result": "212 ± 9", "unit": "nM"}, {"measurement": "NO (nM), White Donors, acute NO release", "setting": "[2]", "result": "258 ± 20", "unit": "nM"}]}, {"compound": "Oc1c(F)ccc2c1CCC(C(O)CNCC(O)C1CCc3cc(F)ccc3O1)O2", "note": "(stereo not drawn) [5-hydroxy nebivolol]", "values": [{"measurement": "peak NO release", "setting": "[1]; 10 μM, acute, FIG. 3", "result": "approximately 220 nM"}]}, {"compound": "Oc1cc(F)cc2c1OC(C(O)CNCC(O)C1CCc3cc(F)ccc3O1)CC2", "note": "(stereo not drawn) [8-hydroxy nebivolol]", "values": [{"measurement": "peak NO release", "setting": "[1]; 10 μM, acute, FIG. 3", "result": "approximately 220 nM"}]}, {"compound": "O[C@H](CNC[C@@H](O)[C@H]1CCc2cc(F)ccc2O1)[C@@H]1CCc2cc(F)ccc2O1", "note": "[d-nebivolol, reference compound]", "values": [{"measurement": "NO (nM), Black Donors, acute NO release", "setting": "[2]", "result": "87 ± 6", "unit": "nM"}, {"measurement": "NO (nM), White Donors, acute NO release", "setting": "[2]", "result": "127 ± 17", "unit": "nM"}]}, {"compound": "O[C@@H](CNC[C@H](O)[C@H]1CCc2cc(F)ccc2O1)[C@@H]1CCc2cc(F)ccc2O1", "note": "[l-nebivolol, reference compound]", "values": [{"measurement": "NO (nM), Black Donors, acute NO release", "setting": "[2]", "result": "192 ± 9", "unit": "nM"}, {"measurement": "NO (nM), White Donors, acute NO release", "setting": "[2]", "result": "268 ± 12", "unit": "nM"}]}]}
